Source: US4820834A, “Benzodiazepine analogs” (priority 1987, dated 1989)
Like-named read-outs stand apart in the source and are kept apart here.

Experiments:
[1] = target: T1, CCK receptor (pancreas) (Rattus norvegicus, UniProt P30551); assay: CCK Receptor Binding (Pancreas): inhibition of ^125 I-CCK-33 binding; set-up: species or system Male Sprague-Dawley rats; settings: rat pancreas membranes, ^125 I-CCK-33, 37° C., 30 minutes
T1 construct: The whole pancreas was dissected free of fat tissue and was homogenized; from tissue; host or cells: rat pancreas membranes (Sprague-Dawley)
T1 sequence (P30551 1-444): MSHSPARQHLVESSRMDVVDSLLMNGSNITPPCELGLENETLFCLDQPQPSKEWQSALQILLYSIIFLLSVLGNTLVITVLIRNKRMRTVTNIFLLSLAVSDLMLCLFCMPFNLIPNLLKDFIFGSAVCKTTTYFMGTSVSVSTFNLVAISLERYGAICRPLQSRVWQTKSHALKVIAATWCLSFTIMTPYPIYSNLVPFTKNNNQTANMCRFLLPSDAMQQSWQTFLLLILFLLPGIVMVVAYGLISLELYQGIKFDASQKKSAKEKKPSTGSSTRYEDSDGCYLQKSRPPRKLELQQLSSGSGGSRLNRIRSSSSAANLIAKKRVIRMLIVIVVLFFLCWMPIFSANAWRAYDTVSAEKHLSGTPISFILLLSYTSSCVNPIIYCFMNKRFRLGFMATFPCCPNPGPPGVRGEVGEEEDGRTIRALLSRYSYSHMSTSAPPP
Procedure: 1. CCK Receptor Binding (Pancreas)
CCK-33 was radiolabeled with ^125 I-Bolton Hunter reagent (2000 Ci/mmole) as described by Sankara et al. (J. Biol. Chem. 254: 9349-9351, 1979). Receptor binding was performed according to Innis and Snyder (Proc. Natl. Acad. Sci. 77: 6917-6921, 1980) with the minor modification of adding the additional protease inhibitors, phenylmethane sulfonyl fluoride and o-phenanthroline.
Male Sprague-Dawley rats (200-350 g) were sacrificed by decapitation. The whole pancreas was dissected free of fat tissue and was homogenized in 20 volumes of ice-cold 50 mM, Tris HCl (pH 7.7 at 25° C.) with a Brinkmann Polytron PT 10. The homogenates were centrifuged at 48,000 g for 10 min. Pellets were resuspended in Tris Buffer, centrifuged as above and resuspended in 200 volumes of binding assay buffer (50 mM Tris HCl, pH 7.7 at 25° C., 5 mM dithiothrietol, 0.1 mM bacitracin, 1.2 mM phenylmethane sulfonyl fluoride and 0.5 mM o-phenanthroline). […] All assays were run in duplicate or triplicate. The reaction mixtures were incubated at 37° C. for 30 minutes and centrifuged in a Beckman Microfuge (4 minutes) immediately after adding 1 ml of ice-cold incubation buffer. The supernatant was aspirated and discarded, pellets were counted with a Beckman gamma 5000. For Scatchard analysis (Ann. N.Y. Acad. Sci. 51: 660, 1949), ^125 I-CCK-33 was progressively diluted with increasing concentrations of CCK-33.

[2] = target: T2, Gastrin receptor (gastric glands) (Cavia porcellus, UniProt H0VZC5); assay: Gastrin Receptor Binding in Guinea Pig Gastric Glands; set-up: species or system guinea pig (male Hartley); settings: 25° C., 30 minutes
T2 construct: The washed guinea pig gastric glands prepared as above were resuspended; from tissue; host or cells: guinea pig gastric mucosal glands (male Hartley)
T2 sequence (H0VZC5 1-426): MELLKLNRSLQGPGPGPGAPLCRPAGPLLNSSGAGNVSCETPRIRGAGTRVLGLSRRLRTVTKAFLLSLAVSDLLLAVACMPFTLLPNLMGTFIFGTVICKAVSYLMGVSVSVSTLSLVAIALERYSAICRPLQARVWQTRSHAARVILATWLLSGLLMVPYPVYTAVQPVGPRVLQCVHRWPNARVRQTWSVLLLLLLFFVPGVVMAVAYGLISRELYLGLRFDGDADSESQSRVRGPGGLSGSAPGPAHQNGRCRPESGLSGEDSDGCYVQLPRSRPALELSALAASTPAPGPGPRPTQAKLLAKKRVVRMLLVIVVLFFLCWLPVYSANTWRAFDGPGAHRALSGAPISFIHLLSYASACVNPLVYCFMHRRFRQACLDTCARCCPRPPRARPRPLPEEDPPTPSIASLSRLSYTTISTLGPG

[3] = target: T3, CCK receptor (brain, cerebral cortex) (Cavia porcellus, UniProt H0VZC5); assay: biochemical; type: binding, Male Hartley guinea pigs; settings: guinea pig cerebral cortex, ^125 I-CCK-33, 25° C., 2 hours
T3 construct: Cerebral cortex was dissected and used as a receptor source; from tissue; host or cells: guinea pig cerebral cortex membranes (male Hartley)
T3 sequence (H0VZC5 1-426): T2 sequence (H0VZC5 1-426)
Procedure, shortened: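 Binding of [radiolabeled] CCK-33 measured by gamma counting of centrifuged pellets after 2 h at 25°C. Membranes came from guinea pig brain cortex, suspended in 10 mM HEPES, 5 mM MgCl2, 1 mM EGTA, 0.25 mg/ml bacitracin, 0.4% BSA.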

[4] = read-out: IC50 ^125 I-CCK Pancreas
[5] = ^125 I-gastrin, read-out: IC50 ^125 I-Gastrin Gastric Glands
[6] = read-out: IC50 ^125 I-CCK Brain

| SMILES | IC50 [1, 4] | IC50 [2, 5] | IC50 [3, 6] | IC50 ([1]; IC50 ^125 I-CCK Pancreas) | IC50 ([2]; IC50 ^125 I-Gastrin Gastric Glands) | IC50 ([3]; IC50 ^125 I-CCK Brain) |
| --- | --- | --- | --- | --- | --- | --- |
| COc1cc(NC(=O)NC2N=C(c3ccccc3)c3ccccc3N(C)C2=O)cc(OC)c1 (stereo not shown) [Example 274] | 310 nM | 1600 nM | 2300 nM |  |  |  |
| CCOC(=O)C(C)N1C(=O)C(NC(=O)OCc2ccccc2)N=C(c2ccccc2)c2ccccc21 (stereo not drawn) [Example 241, 2,3-Dihydro-alpha-methyl-2-oxo-5-phenyl-3-((phenylmethoxy)carbonyl)amino-1H-1,4-benzodiazepine-1-acetic acid ethyl ester] |  | 950 nM | 1400 nM | 930 nM |  |  |
| CN1C(=O)C(NC(=O)Nc2cccc3ccccc23)N=C(c2ccccc2)c2ccccc21 (stereo not shown) [Example 273, N-(2,3-Dihydro-1-methyl-2-oxo-5-phenyl-1H-1,4-benzodiazepin-3-yl)-N'-1-naphthalenyl-urea] |  | 57 nM | 79 nM | 8.6 nM |  |  |
| COc1cccc(NC(=O)NC2N=C(c3ccccc3)c3ccccc3NC2=S)c1 (stereo not shown) [Example 280, N-(2,3-Dihydro-5-phenyl-2-thioxo-1H-1,4-benzodiazepin-3-yl)-N'-(3-methoxyphenyl)-urea] |  |  |  | 15 nM | 250 nM | 970 nM |
| CN1C(=O)[C@@H](NC(=O)c2ccc(C(F)(F)F)cc2)N=C(c2ccccc2F)c2ccccc21 [Example 219, (S)-N-(5-(2-Fluorophenyl)-2,3-dihydro-1-methyl-2-oxo-1H-1,4-benzodiazepin-3-yl)-4-(trifluoromethyl)-benzamide] |  | 440 nM |  | 0.5 nM |  | 1400 nM |
| CCOC(=O)CN1C(=O)C(NC(=O)NC(C)c2ccccc2)N=C(c2ccccc2F)c2ccccc21 (stereo not shown) [Example 195, 5-(2-Fluorophenyl)-2,3-dihydro-2-oxo-((((1-phenylethyl)amino)carbonyl)amino)-1H-1,4-benzodiazepine-1-acetic acid ethyl ester] |  | 400 nM | > 100 nM | 4800 nM |  |  |
| CCCCCc1ccc(C(=O)N[C@H]2N=C(c3ccccc3)c3ccccc3N(C)C2=O)cc1 [Example 201] | 250 nM | > 100000 nM |  |  |  |  |
| CN1C(=O)C(NC(=O)c2ccc(C(F)(F)F)cc2)N=C(c2ccccc2F)c2ccccc21 (stereo not shown) [Example 218, N-(5-(2-Fluorophenyl)-2,3-dihydro-1-methyl-2-oxo-1H-1,4-benzodiazepin-3-yl)-4-(trifluoromethyl)-benzamide] |  | 1800 nM |  | 2.6 nM |  |  |
| S=C1Nc2ccc(Cl)cc2C(c2ccccc2)=N[C@@H]1Cc1c[nH]c2ccccc12 [Example 34, 7-Chloro-1,3-dihydro-3(R)-(3'-indolyl)methyl-5-phenyl-2H-1,4-benzodiazepin-2-thione] |  |  |  | 4500 nM |  | > 100000 nM |
| O=C1Nc2ccc(Cl)cc2C(c2ccccc2)N[C@@H]1Cc1c[nH]c2ccccc12 (stereo partly drawn) [Example 25, 7-Chloro-1,3,4,5-tetrahydro-3(R)-(3'-indolyl)methyl-5-phenyl-2H-1,4-benzodiazepin-2-one] | 12000 nM |  | > 100000 nM |  |  |  |
| CN1C(=O)[C@@H](Cc2c[nH]c3ccccc23)N=C(c2ccccc2F)c2ccccc21 [Example 4b, 1,3-dihydro-5-(2-fluorophenyl)-3(R)-(3'-indolyl) methyl-1-methyl-2H-1,4-benzodiazepin-2-one] |  |  |  | 270 nM |  | 18000 nM |
| O=C1Nc2ccc(Cl)cc2C(c2ccccc2)=N[C@@H]1Cc1ccc(OCc2ccccc2)cc1 [Example 16, 7-Chloro-1,3-dihydro-3(R)-(4-benzyloxybenzyl)-5-phenyl-2H-1,4-benzodiazepin-2-one] |  |  |  | > 100000 nM |  | > 100000 nM |
| CN1C(=O)[C@@H](Cc2cn(C)c3ccccc23)N(C(=O)c2ccc(Cl)cc2)C(c2ccccc2F)c2ccccc21 (stereo partly drawn) [Example 27a, 4-(p-Chlorobenzoyl)-5-(2-fluorophenyl)-3(R)-[3'-(1'-methylindolyl)-methyl]-1-methyl-1,3,4,5-tetrahydro-2H-1,4-benzodiazepin-2-one] | > 100000 nM |  | > 100000 nM |  |  |  |
| O=C1Nc2ccccc2C(c2ccccc2)=N[C@@H]1Cc1c[nH]c2ccccc12 [Example 6, 1,3-Dihydro-3(R)-(3'-indolyl)methyl-5-phenyl-2H-1,4-benzodiazepin-2-one] |  |  |  | 1200 nM |  | 50000 nM |
| O=C1Nc2ccccc2C(c2ccccc2F)=NC1Cc1c[nH]c2cc(F)ccc12 (racemic) [Example 60, 1,3-Dihydro-3(RS)-[3'-(6'-fluoroindolyl)methyl]-5-o-fluorophenyl-2H-1,4-benzodiazepin-2-one] |  |  |  | 1300 nM |  | 100000 nM |
| O=C1Nc2ccc(Cl)cc2C(c2ccccc2)=NC1Cc1cccc2ccccc12 (racemic) [Example 17, 7-Chloro-1,3-dihydro-3(RS)-(1-naphthyl)methyl-5-phenyl-2H-1,4-benzodiazepin-2-one] |  |  |  | 23000 nM |  | 100000 nM |
| CN1CC(CC2N=C(c3ccccc3)c3ccccc3N(C)C2=O)c2ccccc21 (stereo not shown) [Example 211, 3-((2,3-Dihydro-1-methyl-1H-indol-3-yl)methyl)-1,3-dihydro-1-methyl-5-phenyl-2H-1,4-benzodiazepin-2-one] |  |  |  | 13000 nM |  | 93000 nM |
| Cc1cccc(NC(=O)N[C@@H]2N=C(c3ccccc3)c3ccccc3N(C)C2=O)c1 [Example 281, (R)-N-(2,3-Dihydro-1-methyl-2-oxo-5-phenyl-1H-1,4-benzodiazepin-3-yl)-N'-(3-methylphenyl)-urea] |  | 0.66 nM |  | 1400 nM |  |  |
| Cc1cccc(NC(=O)NC2N=C(c3ccccc3)c3ccccc3N(C)C2=O)c1 (stereo not shown) [Example 263, N-(2,3-Dihydro-1-methyl-2-oxo-5-phenyl-1H-1,4-benzodiazepin-3-yl)-N'-(3-methylphenyl)-urea] | 8.1 nM | 3.1 nM |  |  |  |  |
| O=C1Nc2ccc(Cl)cc2C(c2ccccc2)=N[C@@H]1Cc1c[nH]c2ccccc12 [Example 5, 7-Chloro-1,3-dihydro-3(R)-(3'-indolyl)methyl-5-phenyl-2H-1,4-benzodiazepin-2-one] |  |  |  | 3400 nM |  | 100000 nM |
| CCCCCc1ccc(C(=O)N[C@@H]2N=C(c3ccccc3)c3ccccc3N(C)C2=O)cc1 [Example 206, (R)-N-(2,3-Dihydro-1-methyl-2-oxo-5-phenyl-1H-1,4-benzodiazepin-3-yl)-4-pentylbenzamide] | 12000 nM | > 100000 nM |  |  |  |  |
| CC(=O)N1C(c2ccccc2F)c2ccccc2N(C)C(=O)[C@H]1Cc1cn(C)c2ccccc12 (stereo partly drawn) [Example 27b, 4-acetyl-5-(2-fluorophenyl)-3(R)-[3'-(1'-methylindolyl)-methyl]-1-methyl-1,3,4,5-tetrahydro-2H-1,4-benzodiazepin-2-one] | 100000 nM |  | > 100000 nM |  |  |  |
| O=C1[C@@H](Cc2c[nH]c3ccccc23)N=C(c2ccccc2)c2cc(Cl)ccc2N1Cc1ccccc1 [Example 30, 1-Benzyl-7-chloro-1,3-dihydro-3(R)-(3'-indolyl) methyl-5-phenyl-2H-1,4-benzodiazepin-2-one] |  |  |  | > 100000 nM |  | > 100000 nM |
